# Experimental data reported in patent US12371454B2, “Cyclic peptide compound having Kras inhibitory action” (priority 2019, dated 2025).
# Starred links: 1 amine or outer side, 2 acyl side, 3 side chain; linkers in the order of their positions; H or OH if unused. Positions of bridges follow the written chain, without caps; N, C: chain ends. Non-standard residues stand in square brackets, D forms with d. Residues, ends and D or L forms follow the SMILES beside them. *: point of attachment. hPhe(3-Cl-4-CF3) = N[C@@H](CCc1ccc(C(F)(F)F)c(Cl)c1)C(=O)O; NMeDab(N,N-(CH2CF2CH2)) = CN[C@@H](CCN1CC(F)(F)C1)C(=O)O; hPhe(3-F,4-CF3) = N[C@@H](CCc1ccc(C(F)(F)F)c(F)c1)C(=O)O; X38 = CN([C@@H](Cc1cccc(OC(F)(F)F)c1)C(=O)[*:2])[*:1]; hPhe(4-CF3) = N[C@@H](CCc1ccc(C(F)(F)F)cc1)C(=O)O; NMePhe(4-Cl) = CN[C@@H](Cc1ccc(Cl)cc1)C(=O)O; X35 = CN([C@@](C)(Cc1ccccc1)C(=O)[*:2])[*:1]; NMePhe(4-F) = CN[C@@H](Cc1ccc(F)cc1)C(=O)O; hPhe(4-Cl) = N[C@@H](CCc1ccc(Cl)cc1)C(=O)O; NMeMet(O2) = CN[C@@H](CCS(C)(=O)=O)C(=O)O; NMeAla(cPent) = CN[C@@H](CC1CCCC1)C(=O)O; NMeGly(cPent) = CN[C@H](C(=O)O)C1CCCC1; Phe(3-I) = N[C@@H](Cc1cccc(I)c1)C(=O)O; Phe(4-Me) = Cc1ccc(C[C@H](N)C(=O)O)cc1; dβ3hPip = O=C(C[C@H]1CCCCN1[*:1])[*:2]; NMeY = CN[C@@H](Cc1ccc(O)cc1)C(=O)O; NMeCha = CN[C@@H](CC1CCCCC1)C(=O)O; Azetidine(3,3-F2) = FC1(F)CN(*)C1; NMeChg = CN[C@H](C(=O)O)C1CCCCC1; NMeF = CN[C@@H](Cc1ccccc1)C(=O)O; NMeD = CN[C@@H](CC(=O)O)C(=O)O; NMeL = CN[C@@H](CC(C)C)C(=O)O; NMehSer = CN[C@@H](CCO)C(=O)O; NMeV = CN[C@H](C(=O)O)C(C)C; d(β3hA) = C[C@@H](N)CC(=O)O; Iva = CC[C@](C)(N)C(=O)O; NMeA = CN[C@@H](C)C(=O)O; NMeAib = CNC(C)(C)C(=O)O; Nle = CCCC[C@H](N)C(=O)O; Piperidide = C1CCN(*)CC1; Pyrrolidide = C1CCN(*)C1; Ac5c = NC1(C(=O)O)CCCC1; Aze = O=C(O)[C@@H]1CCN1; Ac4c = NC1(C(=O)O)CCC1; Sar = CNCC(=O)O; Propyl = CCC*
# Target: T1, Kras and SOS1 (biotin-tagged human Kras loaded with GDP, His-tagged human SOS1) (Homo sapiens, UniProt P01116, G12D)
# T1 construct: made in house; host or cells: E. coli (stated for Kras only)
# T1 sequence (P01116 1-188 isoform P01116-2 G12D): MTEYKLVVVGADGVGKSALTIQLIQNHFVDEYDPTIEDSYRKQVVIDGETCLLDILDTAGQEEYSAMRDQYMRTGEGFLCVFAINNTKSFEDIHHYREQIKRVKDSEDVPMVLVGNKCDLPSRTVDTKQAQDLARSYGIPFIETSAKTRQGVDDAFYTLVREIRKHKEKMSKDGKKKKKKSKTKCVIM
# Assay: Protein-protein interaction inhibition between Kras and SOS1 (KrasGl2D-SOS PPI) using AlphaScreen
# Assay type: binding
# Details: AlphaScreen; biotin-tagged human Kras loaded with GDP, His-tagged human SOS1; read-out: KRAS G12D-SOS PPI IC50
# Procedure, shortened: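 Read-out is acceptor-bead light at 520-620 nm, arising when 680 nm-irradiated nickel donor beads pass singlet oxygen to streptavidin acceptors. The bead pair links His-tagged SOS1 with biotin-tagged, GDP-bound Kras from E. coli.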
row,Structure (SMILES),IC50 [nM]
1,CCCC[C@@H]1NC(=O)[C@H](Cc2cccc(I)c2)NC(=O)CN(C)C(=O)[C@H](Cc2ccc(OC)cc2)N(C)C(=O)CN(C)C(=O)CN(C)C(=O)[C@H]([C@@H](C)CC)NC(=O)[C@H](CC(C)C)N(C)C(=O)C[C@@H](C(=O)N2CCCCC2)N(C)C(=O)[C@H](CC(C)C)NC(=O)[C@](C)(Cc2ccccc2)N(C)C1=O [Compound 125] ([NMeL]I[Sar][Sar][NMeY](Me)[Sar][Phe(3-I)][Nle][X35]L[NMeD]-Piperidide; lactam N-11),2.8
2,"CCCOC[C@@H]1NC(=O)[C@H](CC(=O)N2CC(F)(F)C2)N(C)C(=O)[C@H](CCc2ccc(C(F)(F)F)c(Cl)c2)NC(=O)CN(C)C(=O)[C@H](CC2CCCCC2)N(C)C(=O)CN(C)C(=O)CN(C)C(=O)[C@H]([C@@H](C)CC)NC(=O)[C@H](C)N(C)C(=O)C[C@@H](C(=O)N2CCCCC2)N(C)C(=O)[C@H](C(C)C)N(C)C1=O [Compound 129] ([NMeA]I[Sar][Sar][NMeCha][Sar][hPhe(3-Cl-4-CF3)][NMeD](Azetidine(3,3-F2))S(Propyl)[NMeV][NMeD]-Piperidide; lactam N-11)",11
3,"CC[C@H](C)[C@@H]1NC(=O)[C@H](CC(C)C)N(C)C(=O)C[C@@H](C(=O)N(C)C)N(C)C(=O)[C@H](C2CCCC2)N(C)C(=O)[C@H](COC)NC(=O)[C@H](CCN2CC(F)(F)C2)N(C)C(=O)[C@H](CCc2ccc(C(F)(F)F)c(Cl)c2)NC(=O)CN(C)C(=O)[C@H](CC2CCCCC2)N(C)C(=O)[C@@H]2CCN2C(=O)[C@H](C)N(C)C1=O [Compound 130] ([NMeL]I[NMeA][Aze][NMeCha][Sar][hPhe(3-Cl-4-CF3)][NMeDab(N,N-(CH2CF2CH2))]S(Me)[NMeGly(cPent)][NMeD]-NMe2; lactam N-11)",10
4,"CC[C@H](C)[C@@H]1NC(=O)[C@H](CC(C)C)N(C)C(=O)C[C@@H](C)NC(=O)[C@H](CC(C)C)N(C)C(=O)C2(CCC2)NC(=O)[C@@H]2CCCN2C(=O)[C@H](CCc2ccc(C(F)(F)F)c(F)c2)NC(=O)CN(C)C(=O)[C@H](CC2CCCCC2)N(C)C(=O)CN(C)C(=O)CN(C)C1=O [Compound 133] (cyclo([Ac4c][NMeL][d(β3hA)][NMeL]I[Sar][Sar][NMeCha][Sar][hPhe(3-F,4-CF3)]P))",23
5,CC[C@H](C)[C@@H]1NC(=O)[C@H](C)N(C)C(=O)C[C@@H](C(=O)N2CCCCC2)N(C)C(=O)[C@H](C(C)C)N(C)C(=O)C2(CCCC2)NC(=O)[C@@H]2CCCN2C(=O)[C@H](CCc2ccc(C(F)(F)F)c(Cl)c2)NC(=O)[C@H]2CCCN2C(=O)[C@H](CC2CCCCC2)N(C)C(=O)CN(C)C(=O)CN(C)C1=O [Compound 135] ([NMeA]I[Sar][Sar][NMeCha][dP][hPhe(3-Cl-4-CF3)]P[Ac5c][NMeV][NMeD]-Piperidide; lactam N-11),38
6,"CC[C@H](C)[C@@H]1NC(=O)[C@H](CC(C)C)N(C)C(=O)C[C@H]2CCCCN2C(=O)[C@H](C(C)C)N(C)C(=O)C2(CCCC2)NC(=O)[C@@H]2CCCN2C(=O)[C@H](CCc2ccc(C(F)(F)F)c(F)c2)NC(=O)CN(C)C(=O)[C@H](CC2CCCCC2)N(C)C(=O)CN(C)C(=O)CN(C)C1=O [Compound 142] (cyclo([Ac5c][NMeV][dβ3hPip][NMeL]I[Sar][Sar][NMeCha][Sar][hPhe(3-F,4-CF3)]P))",38
7,CCCC[C@@H]1NC(=O)[C@H](Cc2cccc(I)c2)NC(=O)CN(C)C(=O)[C@H](Cc2ccc(Cl)cc2)N(C)C(=O)CN(C)C(=O)CN(C)C(=O)[C@H]([C@@H](C)CC)NC(=O)[C@H](CC(C)C)N(C)C(=O)C[C@@H](C(=O)N2CCCCC2)N(C)C(=O)[C@H](CC(C)C)NC(=O)[C@H](Cc2cccc(OC(F)(F)F)c2)N(C)C1=O [Compound 143] ([NMeL]I[Sar][Sar][NMePhe(4-Cl)][Sar][Phe(3-I)][Nle][X38]L[NMeD]-Piperidide; lactam N-11),68
8,CC[C@H](C)[C@@H]1NC(=O)[C@H](C)N(C)C(=O)C[C@@H](C)NC(=O)[C@H](C2CCCC2)N(C)C(=O)C2(CCCC2)NC(=O)[C@@H]2CCCN2C(=O)[C@H](CCc2ccc(C(F)(F)F)c(Cl)c2)NC(=O)CN(C)C(=O)[C@H](Cc2ccc(F)cc2)N(C)C(=O)[C@@H]2CCCN2C(=O)CN(C)C1=O [Compound 146] (cyclo([Ac5c][NMeGly(cPent)][d(β3hA)][NMeA]I[Sar]P[NMePhe(4-F)][Sar][hPhe(3-Cl-4-CF3)]P)),4
9,COC[C@@H]1NC(=O)[C@H](CC(C)C)N(C)C(=O)C[C@@H](C(=O)N2CCCCC2)N(C)C(=O)[C@H](C2CCCCC2)N(C)C(=O)C2(CCCC2)NC(=O)[C@@H]2CCCN2C(=O)[C@H](CCc2ccc(C(F)(F)F)c(Cl)c2)NC(=O)CN(C)C(=O)[C@H](CC2CCCCC2)N(C)C(=O)CN(C)C(=O)CN(C)C1=O [Compound 148] ([NMeL]S(Me)[Sar][Sar][NMeCha][Sar][hPhe(3-Cl-4-CF3)]P[Ac5c][NMeChg][NMeD]-Piperidide; lactam N-11),1.8
10,CC[C@H](C)[C@@H]1NC(=O)[C@H](CC(C)C)N(C)C(=O)C[C@@H](C)NC(=O)[C@H](C(C)C)N(C)C(=O)[C@](C)(CC)NC(=O)[C@@H]2CCCN2C(=O)[C@H](CCc2ccc(C(F)(F)F)c(Cl)c2)NC(=O)CN(C)C(=O)[C@H](CC2CCCCC2)N(C)C(=O)CN(C)C(=O)CN(C)C1=O [Compound 149] (cyclo(I[Sar][Sar][NMeCha][Sar][hPhe(3-Cl-4-CF3)]P[Iva][NMeV][d(β3hA)][NMeL])),51
11,CC[C@H](C)[C@@H]1NC(=O)[C@H](C)N(C)C(=O)C[C@@H](C(=O)N2CCCC2)NC(=O)[C@H](C(C)C)N(C)C(=O)[C@H](Cc2ccccc2)N(C)C(=O)[C@H](CC(C)C)N(C)C(=O)[C@H](CCc2ccc(C(F)(F)F)cc2)NC(=O)CN(C)C(=O)[C@H](Cc2ccc(Cl)cc2)N(C)C(=O)CN(C)C(=O)CN(C)C1=O [Compound 152] ([NMeA]I[Sar][Sar][NMePhe(4-Cl)][Sar][hPhe(4-CF3)][NMeL][NMeF][NMeV]D-Pyrrolidide; lactam N-11),110
12,"CCCOC[C@@H]1NC(=O)[C@H](CCN2CC(F)(F)C2)N(C)C(=O)[C@H](CCc2ccc(C(F)(F)F)c(Cl)c2)NC(=O)CN(C)C(=O)[C@H](CC2CCCCC2)N(C)C(=O)CN(C)C(=O)CN(C)C(=O)[C@H]([C@@H](C)CC)NC(=O)[C@H](C)N(C)C(=O)C[C@@H](C(=O)N2CCCCC2)N(C)C(=O)[C@H](C(C)C)N(C)C1=O [Compound 154] ([NMeA]I[Sar][Sar][NMeCha][Sar][hPhe(3-Cl-4-CF3)][NMeDab(N,N-(CH2CF2CH2))]S(Propyl)[NMeV][NMeD]-Piperidide; lactam N-11)",4.8
13,CC[C@H](C)[C@@H]1NC(=O)[C@H](C(C)C)N(C)C(=O)C[C@@H](C)NC(=O)[C@H](CC(C)C)N(C)C(=O)C2(CCCC2)NC(=O)[C@H](CC(C)C)N(C)C(=O)[C@H](CCc2ccc(C(F)(F)F)c(Cl)c2)NC(=O)CN(C)C(=O)[C@H](Cc2ccc(Cl)cc2)N(C)C(=O)[C@@H]2CCN2C(=O)CN(C)C1=O [Compound 158] (cyclo([Ac5c][NMeL][d(β3hA)][NMeV]I[Sar][Aze][NMePhe(4-Cl)][Sar][hPhe(3-Cl-4-CF3)][NMeL])),10
14,CC[C@H](C)[C@@H]1NC(=O)[C@H](CC(C)C)N(C)C(=O)C[C@@H](C(=O)N2CCCCC2)N(C)C(=O)[C@H](C2CCCCC2)N(C)C(=O)C2(CCCC2)NC(=O)[C@@H]2CCCN2C(=O)[C@H](CCc2ccc(C(F)(F)F)c(Cl)c2)NC(=O)CN(C)C(=O)[C@H](CCOC)N(C)C(=O)CN(C)C(=O)CN(C)C1=O [Compound 159] ([NMeL]I[Sar][Sar][NMehSer](Me)[Sar][hPhe(3-Cl-4-CF3)]P[Ac5c][NMeChg][NMeD]-Piperidide; lactam N-11),2.4
15,CC[C@H](C)[C@@H]1NC(=O)[C@H](CC(C)C)N(C)C(=O)C[C@@H](C(=O)N2CCCCC2)N(C)C(=O)[C@H](CCS(C)(=O)=O)N(C)C(=O)C2(CCCC2)NC(=O)[C@@H]2CCCN2C(=O)[C@H](CCc2ccc(C(F)(F)F)c(Cl)c2)NC(=O)CN(C)C(=O)[C@H](CC2CCCCC2)N(C)C(=O)CN(C)C(=O)CN(C)C1=O [Compound 162] ([NMeL]I[Sar][Sar][NMeCha][Sar][hPhe(3-Cl-4-CF3)]P[Ac5c][NMeMet(O2)][NMeD]-Piperidide; lactam N-11),230
16,CC[C@H](C)[C@@H]1NC(=O)[C@H](CC(C)C)N(C)C(=O)C[C@@H](C(=O)N2CCCCC2)N(C)C(=O)[C@H](CC(C)C)NC(=O)C(C)(C)N(C)C(=O)[C@H](Cc2ccc(C)cc2)NC(=O)[C@H](Cc2cccc(I)c2)NC(=O)CN(C)C(=O)[C@H](CC2CCCCC2)N(C)C(=O)CN(C)C(=O)CN(C)C1=O [Compound 166] ([NMeL]I[Sar][Sar][NMeCha][Sar][Phe(3-I)][Phe(4-Me)][NMeAib]L[NMeD]-Piperidide; lactam N-11),21
17,CC[C@H](C)[C@@H]1NC(=O)[C@H](CC(C)C)N(C)C(=O)C[C@@H](C(=O)N2CCCCC2)N(C)C(=O)[C@H](C(C)C)N(C)C(=O)C2(CCCC2)NC(=O)[C@@H]2CCCN2C(=O)[C@H](CCc2ccc(Cl)cc2)NC(=O)CN(C)C(=O)[C@H](CC2CCCC2)N(C)C(=O)CN(C)C(=O)CN(C)C1=O [Compound 167] ([NMeL]I[Sar][Sar][NMeAla(cPent)][Sar][hPhe(4-Cl)]P[Ac5c][NMeV][NMeD]-Piperidide; lactam N-11),58
18,CC[C@H](C)[C@@H]1NC(=O)[C@H](CC(C)C)N(C)C(=O)C[C@@H](C(=O)N2CCCCC2)N(C)C(=O)[C@H](CC(C)C)NC(=O)C(C)(C)N(C)C(=O)[C@H](Cc2ccc(OC)cc2)NC(=O)[C@H](Cc2cccc(I)c2)NC(=O)CN(C)C(=O)[C@H](CC2CCCCC2)N(C)C(=O)[C@@H]2CCN2C(=O)[C@H](C)N(C)C1=O [Compound 169] ([NMeL]I[NMeA][Aze][NMeCha][Sar][Phe(3-I)]Y(Me)[NMeAib]L[NMeD]-Piperidide; lactam N-11),16
